Paper PMC9844320, “Novel CaLB-like Lipase Found Using ProspectBIO, a Software for Genome-Based Bioprospection” (BioTech, 2023)

What was measured:
UhL [1] = molecular target: T1, UhL (Ustilago hordei, UniProt I2G5F8); test: hydrolysis halo on tributyrin agar plate of expressing clones (wild-type X-33 as control); assay type: cell-based; conditions: BMMY agar, pH 6.0, 30 °C, 4 days, methanol induction
T1 construct: gene UHOR_02134; codon-optimized gene in pPICZalphaA (alpha-factor secretion), C-terminal 6xHis, 330 residues expressed, 35 kDa predicted / 36 kDa by Western blot, N-glycosylated; Pichia pastoris X-33 culture supernatant, not purified
T1 sequence (I2G5F8 20-343): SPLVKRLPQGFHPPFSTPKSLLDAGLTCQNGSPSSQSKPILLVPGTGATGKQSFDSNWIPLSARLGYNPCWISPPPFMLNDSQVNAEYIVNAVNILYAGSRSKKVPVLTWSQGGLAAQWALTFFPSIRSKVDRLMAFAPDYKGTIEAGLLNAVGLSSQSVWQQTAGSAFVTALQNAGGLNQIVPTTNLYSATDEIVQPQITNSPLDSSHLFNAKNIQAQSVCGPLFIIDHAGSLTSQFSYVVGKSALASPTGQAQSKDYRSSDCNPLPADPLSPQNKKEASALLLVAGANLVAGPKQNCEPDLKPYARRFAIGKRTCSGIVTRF

rLipB = molecular target: T2, rLipB (Moesziomyces antarcticus, UniProt P41365); test: spectrofluorimetric release of 4-methylumbelliferone by lyophilized culture supernatant; assay type: biochemical; conditions: pH 7, 0.05 M phosphate, 45 °C; crude lyophilized supernatant
T2 construct: recombinant CaLB secreted constitutively (PGK promoter) by Pichia pastoris; lyophilized culture supernatant, gift of LaBiM, not purified
T2 sequence (P41365 26-342): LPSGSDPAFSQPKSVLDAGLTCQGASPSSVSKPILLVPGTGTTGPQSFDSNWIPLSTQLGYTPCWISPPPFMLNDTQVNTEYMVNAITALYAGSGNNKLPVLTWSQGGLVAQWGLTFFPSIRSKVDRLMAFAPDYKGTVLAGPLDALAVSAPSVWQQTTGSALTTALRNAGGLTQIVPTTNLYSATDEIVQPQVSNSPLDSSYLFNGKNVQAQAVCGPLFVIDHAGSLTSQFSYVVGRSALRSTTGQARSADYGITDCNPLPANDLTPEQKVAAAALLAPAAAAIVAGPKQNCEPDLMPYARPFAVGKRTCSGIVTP

UhL [2] = molecular target: T1, UhL; test: spectrofluorimetric release of 4-methylumbelliferone by culture supernatant; assay type: biochemical; conditions: pH 7, 0.05 M phosphate, 45 °C; crude culture supernatant

| Structure (SMILES) | hydrolysis halo on tributyrin agar plate of expressing clones (wild-type X-33 as) (UhL [1]) | relative activity (rLipB) | relative activity (UhL [2]) |
| --- | --- | --- | --- |
| CCCC(=O)OCC(COC(=O)CCC)OC(=O)CCC [tributyrin] | expressed in Pichia pastoris, showing activity against tributyrin triglyceride |  |  |
| CCCC(=O)Oc1ccc2c(C)cc(=O)oc2c1 [C4, MUF-butyrate] |  | rLipB activity was increased, as the ester substrate chain length increased up to C7 |  |
| CCCCCCC(=O)Oc1ccc2c(C)cc(=O)oc2c1 [MUF-7, MUF-heptanoate] |  | Both enzymes showed the highest activity with MUF-heptanoate (MUF-7) | Both enzymes showed the highest activity with MUF-heptanoate (MUF-7) |
